Experimental data taken from article PMC10714390, “Quinoline Compounds Targeting the c-Ring of ATP Synthase Inhibit Drug-Resistant Pseudomonas aeruginosa” (ACS Infectious Diseases, 2023).
Several values for one entry are separate records, joined by “and”; a condition that tells them apart may be missing. Identical values can stand only once. Like-named read-outs stand apart in the source and are kept apart here.

Key:
[1] = system: P. aeruginosa (ATCC 9027); experiment: Antimicrobial susceptibility (broth microdilution), PA 9027; format: cell-based, Pseudomonas aeruginosa; details: Pseudomonas aeruginosa, ATCC9027; n = 3; >85% reduction in growth at OD 590 nm; read-out: antibacterial activity (MIC) PA 9027
Method: (§1) The following are general steps, unless otherwise noted. All steps were completed using aseptic techniques. All media and glassware were sterilized via an autoclave at 121 °C for 60 min. All agitation occurred at 160 rpm in a temperature-controlled console shaker (Excella E25) at 37 °C. Full-strength tryptic soy broth (TSB) was made by dissolving 30 g of BD Bacto TSB powder in 1 L of deionized water. Purchased and acquired bacterial strains used were E. coli (ATCC 25922), P. aeruginosa (ATCC 9027), drug-resistant P. aeruginosa from ATCC Panel MP-23 (BAA 2108, BAA 2109, BAA 2110), and P. aeruginosa efflux knockout GKCW120 (PΔ6)[6] provided by Zgurskaya and co-workers at the University of Oklahoma.
(§2) Susceptibility testing was performed in biological triplicate using the broth microdilution method as outlined by the Clinical and Laboratory Standards Institute. […] Briefly, to each well, 1 μL of compound in DMSO, 89 μL of TSB, and 10 μL of bacterial inoculum, grown from a single colony in 10 mL of TSB for 4–6 h, were added. After incubation for 12–15 h at 37 °C, absorbance at 590 nm was read on a Biotek Synergy HTX Multimode plate reader. Data were processed by background subtracting the media absorbance and then normalizing the data to full bacterial growth with the vehicle only. MIC is defined as the lowest concentration of antibiotic or antibiotic/adjuvant combination that achieves ≥85% growth inhibition, which corresponds to no visible growth.
(§3) Initial antibacterial activity screen of compounds 4, 5, and S1-S6
(§4) Compounds 4, 5, and S1-S6 were screened for initial antibiotic activity against a susceptible laboratory strain of EC (designated EC 25922), and non-virulent, biofilm forming strain of PA (designated PA 9027), and PD6 (efflux knockout strain6) at 128 µg/mL in DMSO. Sterilization and Antimicrobial Susceptibility Assay procedures utilized were the same as described in the methods.
(§5) Table S1. Antibacterial activity screening results for compounds 4, 5, and S1-S6 at 128 µg/mL
(§6) Table S1. Antibacterial activity screening results for compounds 4, 5, and S1-S6 at 128 µg/mL.

[2] = system: drug-resistant P. aeruginosa BAA 2109; experiment: Antimicrobial susceptibility (broth microdilution), BAA 2109; format: cell-based, Pseudomonas aeruginosa; details: Pseudomonas aeruginosa, BAA2109, read-out: antibacterial activity (MIC) BAA 2109
Method: as §1, §2

[3] = system: drug-resistant P. aeruginosa BAA 2110; experiment: Antimicrobial susceptibility (broth microdilution), BAA 2110; format: cell-based, Pseudomonas aeruginosa; details: Pseudomonas aeruginosa, BAA2110, read-out: antibacterial activity (MIC) BAA 2110
Method: as §1, §2

[4] = system: P. aeruginosa efflux knockout GKCW120 (PΔ6); experiment: Antimicrobial susceptibility (broth microdilution), PΔ6 efflux knockout; format: cell-based, Pseudomonas aeruginosa; details: n = 3; >85% reduction in growth at OD 590 nm
Method: as §1, §2, §3, §4, §5, §6

[5] = system: drug-resistant P. aeruginosa BAA 2108; experiment: Antimicrobial susceptibility (broth microdilution), BAA 2108; format: cell-based, Pseudomonas aeruginosa; details: Pseudomonas aeruginosa, BAA2108, read-out: antibacterial activity (MIC) BAA 2108
Method: as §1, §2

[6] = system: PA electron transport chain; set-up: method as in PMID 35990476; details: PA vesicles; cited from earlier work
PA ATP synthase [7] = target: T1, PA ATP synthase (Pseudomonas aeruginosa, UniProt Q9HT15); experiment: NADH-driven ATP synthesis inhibition, PA inverted membrane vesicles; format: biochemical; details: inhibition of ATP synthesis activity
T1 construct: Inverted membrane vesicles were prepared from PA 9027; endogenous in cells; host or cells: Pseudomonas aeruginosa ATCC 9027, inverted membrane vesicles
Method: (§7) Vesicles were prepared from P. aeruginosa and transformed E. coli cells as previously described.[22] Briefly, cells were grown in LB liquid medium at 37 °C with shaking and harvested by centrifugation after 7 h of growth. Cultures of transformant E. coli included 100 μg/mL ampicillin. Cells were disrupted in TMG buffer (50 mM Tris-HCl, MgCl2, 10% (v/v) glycerol, pH 7.5) using an Avestin B15 homogenizer at 19,000 psi. After unbroken cells and debris were cleared by centrifugation at 9000g, inverted vesicles were collected by centrifugation at 193,000g, resuspended in TMG buffer, and stored at −80 °C. Protein concentrations were determined using a modified Lowry assay.[25]
(§8) Continuous ATP synthesis activity of inverted membrane vesicles was measured using a luciferin/luciferase luminescence assay as previously described.[22] Inhibition of ATP synthesis activity by test compounds was determined using an end point assay essentially as previously described.[18],[26] In this assay, the synthesis reaction was initiated by 2.5 mM NADH, proceeded for 10 min, and was stopped with 1% trichloroacetic acid, 2 mM CCCP, and 10 mM EDTA. Samples from each reaction were diluted 500-fold prior to the addition of luciferase since quinoline compounds are known to inhibit luciferase.[27] This dilution was sufficient to minimize inhibition of luciferase (Figure S4). Each replicate set included a positive control containing DMSO with no compound and a negative control containing carbonyl cyanide m-chlorophenyl hydrazone. Luminescence values were corrected for the background by subtracting the negative control and then normalized to the positive control within the same replicate. Dose–response curves were fit using eq 1, where activity is the relative ATP synthesis activity, [I] is the concentration of inhibitor in μg/mL, and n is the Hill coefficient. [drawing 1] 1

[8] = target: T2, PA ATP synthase expressed in E. coli DK8/pASH20 (Pseudomonas aeruginosa, UniProt Q9HT15); experiment: NADH-driven ATP synthesis inhibition, DK8/pASH20 membrane vesicles; format: biochemical
T2 construct: expressed in transfected cells; host or cells: E. coli K-12 DK8 (lacks its own ATP synthase) transformed with pASH20 (pBR322 derivative)
Method: (§9) P. aeruginosa (ATCC 9027) was streaked onto a 10% TSB agar plate and incubated at room temperature for 72 h. A single colony was resuspended in 100 μL of H2O, and 5 μL was used as the DNA template for PCR with Q5 polymerase (NEB) and […] each of forward and reverse primers. Primers were complementary to regions flanking the atp operon and included sequences for HindIII and NdeI restriction sites (see the SI for primer sequences). The resulting 6.9 kbp DNA fragment was digested with HindIII and NdeI and ligated into digested vector pBR322 (New England Biolabs). The resultant pASH20(-i) plasmid contains a partial atpI gene. To complete the atpI gene, the HindII-XhoI fragment of pASH20(-i) was replaced with a synthetic fragment with a complete atpI (Twist Bioscience) to yield pASH20. The sequence of the entire operon was verified by Sanger DNA sequencing through the ligation sites. Subunit c mutations were introduced by exchanging the XhoI-BamHI fragment containing atpE with a synthetic fragment containing mutated atpE (Twist Bioscience).
as §7, §8

[9] = system: P. aeruginosa efflux knockout GKCW120 (PΔ6); set-up: method as in PMID 35990476; details: cited from earlier work
E. coli (ATCC 25922) = system: E. coli (ATCC 25922); set-up: method as in PMID 35990476; details: cited from earlier work
[10] = system: EC electron transport chain; experiment: Electron transport activity (NADH-driven H+ pumping, ACMA quenching), E. coli DK8/pASH20 vesicles; format: biochemical, Escherichia coli
Method: Determination of electron transport activity. In an opaque black 96-well plate, inverted membrane
vesicles from PA or E. coli DK8 pASH20 were added to HMK buffer containing 0.3 µg/mL 9-amino-6-chloro-
2-methoxyacridine (ACMA) and 0-64 µg/mL test compound in DMSO. After measurement of baseline
ACMA fluorescence for 60 s, redox-driven H+ pumping was initiated by addition of NADH to 0.8 mM, and
fluorescence quenching was monitored for 120 s before addition of nigericin to 0.5 µg/mL. Relative
activity is reported as the minimum fluorescence value normalized to the maximum fluorescence value
following addition of nigericin. […]

[11] = target: T3, PA ATP synthase cIle65Phe mutant (Pseudomonas aeruginosa, UniProt Q9HT15, I65F); experiment: NADH-driven ATP synthesis inhibition, DK8/pASH20 cI65F membrane vesicles; format: biochemical
T3 construct: expressed in transfected cells; host or cells: E. coli K-12 DK8 transformed with pASH20 carrying mutated atpE
Method: as §9, §7, §8

[12] = system: P. aeruginosa (ATCC 9027); set-up: method as in PMID 35990476; details: cited from earlier work
[13] = target: T4, PA ATP synthase cIle65Ala mutant (Pseudomonas aeruginosa, UniProt Q9HT15, I65A); experiment: NADH-driven ATP synthesis inhibition, DK8/pASH20 cI65A membrane vesicles; format: biochemical
T4 construct: expressed in transfected cells; host or cells: E. coli K-12 DK8 transformed with pASH20 carrying mutated atpE
Method: as §9, §7, §8

PA ATP synthase [14] = target: T1, PA ATP synthase; set-up: method as in PMID 35990476; details: PA membrane vesicles; cited from earlier work
[15] = inhibition of ATP synthesis activity

CNC(C)C1CCC(N)C(OC2C(N)CC(N)C(OC3OCC(C)(O)C(NC)C3O)C2O)O1 (stereo not shown) [gentamicin, reference compound]
MIC [1]: 2 to 4 µg/mL | MIC [2]: 2 µg/mL | MIC [3]: 4 to 8 µg/mL | antibacterial activity (MIC) PΔ6 [4]: >4 µg/mL | MIC [5]: 16 µg/mL

COC(=O)[C@H](Cc1ccc(O)cc1)NCc1cc2ccccc2nc1SC [Compound 1, reference compound]
Inhibition of the PA electron transport chain IC50 [6]: >64[18] μg/mL | Hill coefficient of dose response fit, PA vesicles (PA ATP synthase [7]): 1.4 | IC50 ([8]; ATP synthesis IC50, DK8/pASH20 vesicles, wild-type PA ATP synthase in E. coli DK8, NADH-driven, end point luminescence assay): 27.7 µM and 28.8 µM | Hill coefficient of dose response fit, DK8/pASH20 vesicles [8, 15]: 1.3 | antibacterial activity (MIC) PΔ6 [9]: >256 µg/mL | antibacterial activity (MIC) EC 25922 (E. coli (ATCC 25922)): >128 µg/mL | inhibition of EC ETC-driven H+ pumping, in words ([10]; 0-64 µg/mL, Figure S2): did not inhibit the electron transport chain strongly | Inhibition of the EC electron transport chain IC50 ([10]; EC (DK8/pASH20) vesicles): >64 µg/mL | IC50 [11]: 22 µM | Hill coefficient of dose response fit, DK8/pASH20 cI65F vesicles [11, 15]: 1.4 | antibacterial activity (MIC) PA 9027 [12]: >256 µg/mL | IC50 ([13]; ATP synthesis IC50, DK8/pASH20 cI65A vesicles, cI65A mutant, NADH-driven, luminescence assay): 18 µM | Hill coefficient of dose response fit, DK8/pASH20 cI65A vesicles [13, 15]: 1.1 | PA ATP synthesis IC50 (PA ATP synthase [14]): 10.0 µg/mL
